Laboratory results: patent publication US11014911B2, “CDK2 inhibitors” (Pfizer Inc., priority 2019, dated 2021)

Target: CDK2/Cyclin E1 full length (Homo sapiens (Human), UniProt P24941)
Experiment: CDK2/Cyclin E1 full length mobility shift assay
Type: biochemical

Row | Compound | Ki
1 | CC1(NC(=O)O[C@@H]2CC[C@H](c3cc(NC(=O)CC4COc5ccccc54)n[nH]3)C2)CCOC1 (single isomer, unassigned) [Example 489] | 3.71 nM
2 | C[C@H](NC(=O)O[C@@H]1CC[C@H](c2cc(NC(=O)Cc3ccon3)n[nH]2)C1)C1CC1 [Example 466, (1R,3S)-3-{3-[(1,2-oxazol-3-ylacetyl)amino]-1H-pyrazol-5-yl}cyclopentyl [(1S)-1-cyclopropylethyl]carbamate] | 1.02 nM
3 | COc1ccc(CC(=O)Nc2cc([C@@H]3CC[C@H](OC(=O)N4C[C@@](C)(O)[C@@H]4C)C3)[nH]n2)cn1 [Example 626, (1S,3R)-3-(3-{[(6-methoxypyridin-3-yl)acetyl]amino}-1H-pyrazol-5-yl)cyclopentyl (2S,3R)-3-hydroxy-2,3-dimethylazetidine-1-carboxylate] | 4.73 nM
4 | CCCNC(=O)O[C@@H]1CC[C@H](c2cc(NC(=O)Cc3ccccc3S(C)(=N)=O)n[nH]2)C1 (single isomer, unassigned) [Example 202] | 1.85 nM
5 | CC[C@H](C)NC(=O)O[C@@H]1CC[C@H](c2cc(NC(=O)Cc3cn(C(C)C)nn3)n[nH]2)C1 [Example 350, (1R,3S)-3-[3-({[1-(propan-2-yl)-1H-1,2,3-triazol-4-yl]acetyl}amino)-1H-pyrazol-5-yl]cyclopentyl (2S)-butan-2-ylcarbamate] | 3.45 nM
6 | O=C(Cc1cc(F)cc(F)c1)Nc1cc([C@@H]2CC[C@H](OC(=O)NC[C@H]3C[C@H](O)C3)C2)[nH]n1 [Example 576, (1S,3R)-3-(3-{[(3,5-difluorophenyl)acetyl]amino}-1H-pyrazol-5-yl)cyclopentyl [(trans-3-hydroxycyclobutyl)methyl] carbamate] | 1.99 nM
7 | Cc1ncc(CC(=O)Nc2cc([C@@H]3CC[C@H](OC(=O)NC4CCOCC4)C3)[nH]n2)s1 [Example 500, (1S,3R)-3-(3-{[(2-methyl-1,3-thiazol-5-yl)acetyl]amino}-1H-pyrazol-5-yl)cyclopentyl tetrahydro-2H-pyran-4-ylcarbamate] | 2.36 nM
8 | Cc1cnc(CC(=O)Nc2cc([C@H]3CC[C@@H](OC(=O)NC(C)(C)C)C3)[nH]n2)s1 [Example 303, (1R,3S)-3-(3-{[(5-methyl-1,3-thiazol-2-yl)acetyl]amino}-1H-pyrazol-5-yl)cyclopentyl tert-butylcarbamate] | 0.33 nM
9 | Cc1cn(CC(=O)Nc2cc([C@H]3CC[C@@H](OC(=O)NC(C)(C)C)C3)[nH]n2)nn1 [Example 297, (1R,3S)-3-(3-{[(4-methyl-1H-1,2,3-triazol-1-yl)acetyl]amino}-1H-pyrazol-5-yl)cyclopentyl tert-butylcarbamate] | 1.17 nM
10 | Cc1cnc(CC(=O)Nc2cc([C@H]3CC[C@@H](OC(=O)NC4(C)CCOCC4)C3)[nH]n2)o1 [Example 508, (1R,3S)-3-(3-{[(5-methyl-1,3-oxazol-2-yl)acetyl]amino}-1H-pyrazol-5-yl)cyclopentyl (4-methyltetrahydro-2H-pyran-4-yl)carbamate] | 1.46 nM
11 | COc1cnc(CC(=O)Nc2cc([C@H]3CC[C@@H](OC(=O)NC(C)C)C3)[nH]n2)s1 [Example 280, (1R,3S)-3-(3-{[(5-methoxy-1,3-thiazol-2-yl)acetyl]amino}-1H-pyrazol-5-yl)cyclopentyl propan-2-ylcarbamate] | 2.12 nM
12 | CC(=O)N1CCC(CNC(=O)O[C@H]2CC[C@@H](c3cc(NC(=O)Cc4cc(F)cc(F)c4)n[nH]3)C2)CC1 [Example 582, (1S,3R)-3-(3-{[(3,5-difluorophenyl)acetyl]amino}-1H-pyrazol-5-yl)cyclopentyl [(1-acetylpiperidin-4-yl)methyl]carbamate] | 2.23 nM
13 | Cc1ncc(CC(=O)Nc2cc([C@H]3CC[C@@H](OC(=O)N[C@@H]4CCC[C@@H]4C)C3)[nH]n2)o1 [Example 462, (1R,3S)-3-(3-{[(2-methyl-1,3-oxazol-5-yl)acetyl]amino}-1H-pyrazol-5-yl)cyclopentyl [(1R,2S)-2-methylcyclopentyl]carbamate] | 1.74 nM
14 | CCC(CO)CNC(=O)O[C@@H]1CC[C@H](c2cc(NC(=O)Cc3cc(F)cc(F)c3)n[nH]2)C1 (single isomer, unassigned) [Example 536] | 2.07 nM
15 | C[C@H](NC(=O)O[C@@H]1CC[C@H](c2cc(NC(=O)Cc3cnn(C)c3)n[nH]2)C1)[C@@H](C)F [Example 380, (1R,3S)-3-(3-{[(1-methyl-1H-pyrazol-4-yl)acetyl]amino}-1H-pyrazol-5-yl)cyclopentyl [(2S,3R)-3-fluorobutan-2-yl]carbamate] | 0.63 nM
16 | COc1cc(CC(=O)Nc2cc([C@H]3CC[C@@H](OC(=O)N4CCC4C)C3)[nH]n2)ccn1 (single isomer, unassigned) [Example 154] | 1.77 nM
17 | Cc1cc(CC(=O)Nc2cc([C@H]3CC[C@@H](OC(=O)N4[C@H](C)C[C@@H]4C)C3)[nH]n2)on1 [Example 607, (1R,3S)-3-(3-{[(3-methyl-1,2-oxazol-5-yl)acetyl]amino}-1H-pyrazol-5-yl)cyclopentyl (2R,4S)-2,4-dimethylazetidine-1-carboxylate] | 1.9 nM
18 | CC[C@H](C)NC(=O)O[C@@H]1CC[C@H](c2cc(NC(=O)Cc3cn(C)nc3OC)n[nH]2)C1 [Example 351, (1R,3S)-3-(3-{[(3-methoxy-1-methyl-1H-pyrazol-4-yl)acetyl]amino}-1H-pyrazol-5-yl)cyclopentyl (2S)-butan-2-ylcarbamate] | 2.77 nM

Row | Compound | Ki
19 | CC(CC(F)(F)F)NC(=O)O[C@@H]1CC[C@H](c2cc(NC(=O)c3ccnn3CCN(C)C)[nH]n2)C1 (single isomer, unassigned) [Example 409] | 4.15 nM
20 | CC1(NC(=O)O[C@@H]2CC[C@H](c3cc(NC(=O)Cc4cnc(C(F)(F)F)cn4)n[nH]3)C2)CC1 [Example 130] | 0.25 nM
21 | Cc1cc(CC(=O)Nc2cc([C@H]3CC[C@@H](OC(=O)N4CCOC[C@H]4C)C3)[nH]n2)on1 [Example 643, (1R,3S)-3-(3-{[(3-methyl-1,2-oxazol-5-yl)acetyl]amino}-1H-pyrazol-5-yl)cyclopentyl (3R)-3-methylmorpholine-4-carboxylate] | 1.84 nM
22 | COCc1cc(C(=O)Nc2cc([C@H]3CC[C@@H](OC(=O)N[C@@H](C)COC)C3)n[nH]2)n(C)n1 [Example 521, (1R,3S)-3-[5-({[3-(methoxymethyl)-1-methyl-1H-pyrazol-5-yl]carbonyl}amino)-1H-pyrazol-3-yl]cyclopentyl [(2S)-1-methoxypropan-2-yl]carbamate] | 1.95 nM
23 | COc1ccc(CC(=O)Nc2cc([C@H]3CC[C@@H](OC(=O)N4C[C@@H](C#N)[C@@H]4C)C3)[nH]n2)cn1 (single isomer, unassigned) [Example 157] | 1.86 nM
24 | CNC(=O)O[C@@H]1CC[C@H](c2cc(NC(=O)Cc3ccc(OC)nc3)n[nH]2)C1 [Example 256, (1R,3S)-3-(3-{[(6-methoxypyridin-3-yl)acetyl]amino}-1H-pyrazol-5-yl)cyclopentyl methylcarbamate] | 2.58 nM
25 | CCCNC(=O)O[C@H]1CC[C@@H](c2cc(NC(=O)Cc3cn4c(C)csc4n3)n[nH]2)C1 [Example 199, (1S,3R)-3-(3-{[(3-methylimidazo[2,1-b][1,3]thiazol-6-yl)acetyl]amino}-1H-pyrazol-5-yl)cyclopentyl propylcarbamate] | 3.45 nM
26 | CCC1(NC(=O)O[C@@H]2CC[C@H](c3cc(NC(=O)Cc4cnc(OC)cn4)n[nH]3)C2)CC1 [Example 450, (1R,3S)-3-(3-{[(5-methoxypyrazin-2-yl)acetyl]amino}-1H-pyrazol-5-yl)cyclopentyl (1-ethylcyclopropyl)carbamate] | 0.38 nM
27 | O=C(Cc1cc(F)cc(F)c1)Nc1cc([C@@H]2CC[C@H](OC(=O)NCC3CCOCC3)C2)[nH]n1 [Example 513, (1S,3R)-3-(3-{[(3,5-difluorophenyl)acetyl]amino}-1H-pyrazol-5-yl)cyclopentyl (tetrahydro-2H-pyran-4-ylmethyl)carbamate] | 3.19 nM
28 | Cc1nc(CC(=O)Nc2cc([C@H]3CC[C@@H](OC(=O)NC(C)(C)C)C3)[nH]n2)cs1 [Example 304, (1R,3S)-3-(3-{[(2-methyl-1,3-thiazol-4-yl)acetyl]amino}-1H-pyrazol-5-yl)cyclopentyl tert-butylcarbamate] | 1.41 nM
29 | CC1(NC(=O)O[C@@H]2CC[C@H](c3cc(NC(=O)Cc4ccccc4)n[nH]3)C2)CCOC1 (single isomer, unassigned) [Example 125] | 0.34 nM
30 | CC(CC(F)(F)F)NC(=O)O[C@@H]1CC[C@H](c2cc(NC(=O)Cc3ccon3)n[nH]2)C1 (single isomer, unassigned) [Example 63] | 1.25 nM
31 | O=C(Cc1cc(F)cc(F)c1)Nc1cc([C@@H]2CC[C@H](OC(=O)NC[C@H]3CCCO3)C2)[nH]n1 [Example 498, (1S,3R)-3-(3-{[(3,5-difluorophenyl)acetyl]amino}-1H-pyrazol-5-yl)cyclopentyl [(2R)-tetrahydrofuran-2-ylmethyl]carbamate] | 4.28 nM
32 | CC(C)NC(=O)O[C@@H]1CC[C@H](c2cc(NC(=O)Cc3ccccn3)n[nH]2)C1 [Example 265, (1R,3S)-3-{3-[(pyridin-2-ylacetyl)amino]-1H-pyrazol-5-yl}cyclopentyl propan-2-ylcarbamate] | 1.91 nM
33 | CC(CC(F)(F)F)NC(=O)O[C@@H]1CC[C@H](c2cc(NC(=O)Cc3cnn(C(C)C)c3)n[nH]2)C1 (single isomer, unassigned) [Example 407] | 1.16 nM
34 | Cc1csc(CC(=O)Nc2cc([C@H]3CC[C@@H](OC(=O)N4CCC[C@@H]4C)C3)[nH]n2)n1 [Example 637, (1R,3S)-3-(3-{[(4-methyl-1,3-thiazol-2-yl)acetyl]amino}-1H-pyrazol-5-yl)cyclopentyl (2S)-2-methylpyrrolidine-1-carboxylate] | 1.47 nM
35 | CC[C@H](C)NC(=O)O[C@@H]1CC[C@H](c2cc(NC(=O)Cc3cn(C)nn3)n[nH]2)C1 [Example 331, (1R,3S)-3-(3-{[(1-methyl-1H-1,2,3-triazol-4-yl)acetyl]amino}-1H-pyrazol-5-yl)cyclopentyl (2S)-butan-2-ylcarbamate] | 1.49 nM
36 | C[C@H]1CCN1C(=O)O[C@@H]1CC[C@H](c2cc(NC(=O)Cc3cnn(C)c3)n[nH]2)C1 [Example 588, (1R,3S)-3-(3-{[(1-methyl-1H-pyrazol-4-yl)acetyl]amino}-1H-pyrazol-5-yl)cyclopentyl (2S)-2-methylazetidine-1-carboxylate] | 0.75 nM
